Experimental data published in publication PMC7582770, “Synthesis of “All-Cis” Trihydroxypiperidines from a Carbohydrate-Derived Ketone: Hints for the Design of New β-Gal and GCase Inhibitors” (Molecules, 2020).
Substitutions are numbered along the chain they refer to. Read-outs that look alike come from different tables or passages of the source. Marks after values point to notes of the source that are not given here. One block for each compound: values may come before it.

Key:
[1] = system: mutant β-Gal in GM1-gangliosidosis patient fibroblasts; conditions: cited from earlier work
human lysosomal β-Gal = conditions: cited from earlier work
[2] = target: T1, human lysosomal β-galactosidase (β-Gal) (Homo sapiens, UniProt P16278); test: β-Gal inhibition in human leukocyte homogenates; type: biochemical; conditions: compounds 1 mM; human leukocytes extracts
T1 construct: in leukocytes isolated from healthy donors (controls); endogenous in cells; host or cells: human leukocytes from healthy donors, disrupted by sonication (crude homogenate)
T1 sequence (P16278 29-677): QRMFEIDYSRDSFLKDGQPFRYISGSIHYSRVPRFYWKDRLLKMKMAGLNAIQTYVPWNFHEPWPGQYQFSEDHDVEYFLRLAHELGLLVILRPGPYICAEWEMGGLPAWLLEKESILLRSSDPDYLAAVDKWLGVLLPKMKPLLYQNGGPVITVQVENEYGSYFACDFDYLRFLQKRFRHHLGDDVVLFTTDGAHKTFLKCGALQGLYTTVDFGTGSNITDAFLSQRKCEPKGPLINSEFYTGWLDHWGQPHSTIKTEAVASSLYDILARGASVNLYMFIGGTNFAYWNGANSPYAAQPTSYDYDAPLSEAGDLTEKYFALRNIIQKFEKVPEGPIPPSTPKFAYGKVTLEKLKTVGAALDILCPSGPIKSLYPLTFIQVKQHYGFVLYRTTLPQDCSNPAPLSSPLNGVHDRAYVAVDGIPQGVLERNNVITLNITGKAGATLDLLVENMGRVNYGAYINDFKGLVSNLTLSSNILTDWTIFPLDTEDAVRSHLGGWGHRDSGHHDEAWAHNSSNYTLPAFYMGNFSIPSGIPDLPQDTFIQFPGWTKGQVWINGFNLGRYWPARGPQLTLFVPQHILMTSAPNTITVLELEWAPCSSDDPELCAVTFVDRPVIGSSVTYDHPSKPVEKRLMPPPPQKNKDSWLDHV
Experimental: (§1) The new compounds were screened at 1 mM concentration towards β-galactosidase (β-Gal) and β-glucosidase (GCase) in leukocytes isolated from healthy donors (controls). Isolated leukocytes were disrupted by sonication, and a Micro BCA Protein Assay Kit (Sigma–Aldrich, St. Louis, MO, USA) was used to determine the total protein amount for the enzymatic assay, according to the manufacturer’s instructions.
β-Gal activity was measured in a flat-bottomed 96-well plate. Azasugar solution (3 μL), 4.29 μg/μL leukocytes homogenate 1:10 (7 μL), and substrate 4-methylumbelliferyl β-D-galactopyranoside (1.47 mM, 20 μL, Sigma–Aldrich) in acetate buffer (0.1 M, pH 4.3) containing NaCl (0.1 M) and sodium azide (0.02%) were incubated at 37 °C for 1 h. The reaction was stopped by addition of sodium carbonate (200 μL; 0.5 M, pH 10.7) containing Triton X-100 (0.0025%), and the fluorescence 4-methylumbelliferone released by β-galactosidase activity was measured in SpectraMax M2 Microplate Reader (λex = 365 nm and λem = 435 nm; Molecular Devices LLC, San Jose, CA, US). Inhibition is given with respect to the control (without azasugar). Data are mean SD (n = 3).

[3] = target: T2, human lysosomal β-glucosidase (GCase) (Homo sapiens, UniProt P04062); test: GCase inhibition in human leukocyte homogenates; type: biochemical; conditions: compounds 1 mM; human leukocytes extracts
T2 construct: in leukocytes isolated from healthy donors (controls); endogenous in cells; host or cells: human leukocytes from healthy donors, disrupted by sonication (crude homogenate)
T2 sequence (P04062 40-536): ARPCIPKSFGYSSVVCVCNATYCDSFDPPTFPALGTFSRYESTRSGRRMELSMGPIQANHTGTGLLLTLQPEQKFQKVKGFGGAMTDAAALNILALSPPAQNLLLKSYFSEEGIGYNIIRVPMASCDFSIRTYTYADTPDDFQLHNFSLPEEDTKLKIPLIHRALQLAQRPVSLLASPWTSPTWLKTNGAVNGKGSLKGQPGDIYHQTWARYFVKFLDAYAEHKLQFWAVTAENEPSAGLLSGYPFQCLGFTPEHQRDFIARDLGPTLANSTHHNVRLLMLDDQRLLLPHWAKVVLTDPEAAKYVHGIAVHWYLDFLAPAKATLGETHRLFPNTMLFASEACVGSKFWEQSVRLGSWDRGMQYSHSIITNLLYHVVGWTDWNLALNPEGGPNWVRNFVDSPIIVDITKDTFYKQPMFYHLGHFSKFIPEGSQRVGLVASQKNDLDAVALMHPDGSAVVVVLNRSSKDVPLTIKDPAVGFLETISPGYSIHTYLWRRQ
Experimental: as §1
GCase activity was measured in a flat-bottomed 96-well plate. Compound solution (3 µL), 4.29 µg/µL leukocytes homogenate (7 µL), and substrate 4-methylumbelliferyl-β-D-glucoside (3.33 mM, 20 µL, Sigma–Aldrich Chemie Gmbh, Munich, Germany)) in citrate/phosphate buffer (0.1:0.2, M/M, pH 5.8) containing sodium taurocholate (0.3%) and Triton X-100 (0.15%) at 37 °C were incubated for 1 h. The reaction was stopped by addition of sodium carbonate (200 µL; 0.5 M, pH 10.7) containing Triton X-100 (0.0025%), and the fluorescence of 4-methylumbelliferone released by β-glucosidase activity was measured in SpectraMax M2 Microplate Reader (λex = 365 nm and λem = 435 nm; Molecular Devices LLC, San Jose, CA, US). Percentage GCase inhibition is given with respect to the control (without compound). Data are mean SD (n = 3). For compounds showing GCase inhibitory activity higher than 80% at 1 mM concentration, the IC50 values were determined by measuring the initial hydrolysis rate with 4-methylumbelliferyl-β-D-glucoside (3.33 mM). Data obtained were fitted by using the appropriate equation (for more details, see the Supplementary Materials).
IC50 for compounds 9, 10, 12 and 21 towards human lysosomal β-glucosidase The IC50 values of inhibitors against β-glucosidase were determined by measuring the initial hydrolysis rate with 4-methylumbelliferyl-β-D-glucoside (3.33 mM). Data obtained were fitted to the following equation using the Origin Microcal program. where Vi/Vo, represent the ratio between the activity measured in the presence of the inhibitor (Vi) and the activity of the control without the inhibitor (V0), “x” the inhibitor concentration, Max and Min, the maximal and minimal enzymatic activity observed, respectively.
Figure S48: IC of compound 9 towards GCase
Figure S49: IC50 of compound 10 towards GCase
(also on this page, place not known: Min x MinMax Vo Vi slope + […] […] […] […] […] […]+ −= 1 be tween (V i) (V 0), IC50) […]

[4] = target: T2, human lysosomal β-glucosidase (GCase); conditions: human leukocytes extracts, cited from earlier work; for GCase Inhibition (%): compounds 1 mM
[5] = target: T3, GCase in fibroblasts with the N370S/RecNcil mutation (Homo sapiens, UniProt P04062, N409S); parameters: method as in PMID 26376302; conditions: at 100 µM; cited from earlier work
T3 construct: Fibroblasts with the N370S/RecNcil mutation from patients with Gaucher disease; host or cells: human Gaucher patient fibroblasts, N370S/RecNciI
T3 sequence (P04062 40-536 N409S): T2 sequence (P04062 40-536) with N370S

[6] = target: T1, human lysosomal β-galactosidase (β-Gal); parameters: method as in PMID 32200326; conditions: compounds 1 mM; human leukocytes extracts; cited from earlier work

Compound: CCCCCCCCCN1C[C@H](O)[C@@H](O)[C@@H](O)[C@H]1CO [compound 2, N-nonyl-DGJ]
rescue of intracellular activity of mutant β-Gal in GM1-gangliosidosis patient fibroblasts [1]: able to rescue the intracellular activity of mutant β-Gal

Compound: OC[C@H]1CNC[C@@H](O)[C@H]1O [compound 3, 4-epi-isofagomine]
IC50 (human lysosomal β-Gal): 1000 nM

Compound: CCCCC[C@H]1NC[C@@H](O)[C@@H](O)[C@H]1CO [compound 4]
IC50 (human lysosomal β-Gal): 10 nM
rescue of mutant β-Gal activity in fibroblasts from GM1-gangliosidosis patients [1]: able to rescue mutant β-Gal activity

Compound: CCCCCCCCC[C@H]1NC[C@@H](O)[C@@H](O)[C@H]1CO [compound 5]
IC50 (human lysosomal β-Gal): 0.4 nM
rescue of mutant β-Gal activity in fibroblasts from GM1-gangliosidosis patients [1]: able to rescue mutant β-Gal activity

Compound: O[C@@H]1[C@H](O)[C@H](O)CN[C@H]1C[C@H](O)c1ccccc1 [compound 6]
increase of β-Gal activity in GM1 gangliosidosis patient fibroblasts [1]: 2–6 fold

Compound: CCCCCCCC[C@@H](O)C[C@@H]1NC[C@@H](O)[C@@H](O)[C@H]1O [compound 7]
increase of β-Gal activity in GM1 gangliosidosis patient fibroblasts [1]: 2–6 fold

inhibition at 1000 µM [2]: 0%
inhibition at 1000 µM [3]: 36%
Compound: O[C@@H]1CNC[C@@](O)(CCc2ccccc2)[C@@H]1O [compound 11, (3S, 4R, 5R)-3,4,5-Trihydroxy-3-(2-Phenylethyl)-Piperidine]

inhibition at 1000 µM [2]: 3%
inhibition at 1000 µM [3]: 30%
Compound: CC[C@]1(O)CNC[C@@H](O)[C@H]1O [compound 13, (3S, 4R, 5R)-3-Ethyl-3,4,5-Trihydroxypiperidine]

inhibition at 1000 µM [2]: 16%
inhibition at 1000 µM [3]: 9%
melting point: 73 to 75 °C
Compound: O[C@@H]1CNC[C@@](O)(CCc2ccsc2)[C@@H]1O [compound 14, (3S, 4R, 5R)-3,4,5-Trihydroxy-3-((2-(3-Thienyl) Ethyl))-Piperidine]

inhibition at 1000 µM [2]: 6%
inhibition at 1000 µM [3]: 6%
Compound: CN(C)c1ccc(CC[C@]2(O)CNC[C@@H](O)[C@H]2O)cc1 [compound 15]

β-Gal Inhibition (%) [2]: 16%
inhibition at 1000 µM [3]: 25%
Compound: O[C@@H]1CNC[C@@](O)(C#Cc2ccccc2)[C@@H]1O [compound 32, (3S, 4R, 5R)-3,4,5-Trihydroxy-3-(Phenylethynyl)-Piperidine]

inhibition at 1000 µM [2]: 4%
inhibition at 1000 µM [3]: 65%
Compound: CCCCCCC#C[C@]1(O)CNC[C@@H](O)[C@H]1O [compound 33, (3S, 4R, 5R)-3,4,5-Trihydroxy-3-(oct-1-yn-1-yl)-Piperidine]

Compound: CCCCCCCCN[C@H]1CNC[C@@H](O)[C@H]1O [compound 36]
inhibition at 1000 µM [2]: 15%
GCase Inhibition (%) [4]: 93 ^c %
IC50 [4]: 40 ± 3 µM
rescue of GCase activity [5]: 1.5 fold

Compound: CCCCCCCC[C@H]1NC[C@@H](O)[C@@H](O)[C@@H]1O [compound 37]
β-Gal Inhibition (%) [6]: 14 ^d %
GCase Inhibition (%) [4]: 100 ^d %
IC50 [4]: 29 ± 2 µM

Compound: CCCCCCCCCCCC[C@H]1NC[C@@H](O)[C@@H](O)[C@@H]1O [compound 38]
β-Gal Inhibition (%) [6]: 5 ^d %
GCase Inhibition (%) [4]: 100 ^d %
IC50 [4]: 1.5 ± 0.1 µM

Compound: CCCCCCCC[C@@H]1NC[C@@H](O)[C@@H](O)[C@@H]1O [compound 39]
β-Gal Inhibition (%) [6]: 31 ^d %
GCase Inhibition (%) [4]: 80 ^d %
IC50 [4]: 94 ± 5 µM
